# Test results published in patent US8394398B2 (Abbott Laboratories, priority 1997, dated 2013).
# Test system: human coronary artery smooth muscle cells (hCaSMC)
# Experiment: 3H-thymidine uptake proliferation assay, hCaSMC
# Type: cell-based
# Conditions: Homo sapiens, 3 h; read-out: hCaSMC IC50 Mean ± SEM
# Procedure: Experiments were performed to investigate interactions between zotarolimus and the corticosteroid dexamethasone. The effect of dexamethasone on the antiproliferative activity of zotarolimus in human coronary artery smooth muscle ([…]) and endothelial […] determined using an in vitro proliferation assay. The proliferation and migration of vascular smooth muscle cells into the vascular neointima is a characteristic pathologic response seen in restenotic lesions (A. Lafont and P. Libby, The smooth muscle cell: sinner or saint in restenosis and the acute coronary syndromes? […] As a result, in vitro assays which specifically measure the antiproliferative activity of candidate anti-restenotic compounds on human coronary artery smooth muscle and endothelial cells should predict potential anti-restenotic activity in vivo. The tritium incorporation assay is an accurate and sensitive method used in the art to determine cell number and proliferation. Compounds or combinations of compounds which attenuate growth factor-mediated human coronary artery smooth muscle cell […]) proliferation, as measured by the tritium incorporation assay in vitro, are candidate anti-restenotic agents. […] Cell proliferation was monitored by following incorporation of ^3H-thymidine into newly synthesized DNA of cells stimulated by serum and growth factors. Exponentially growing […] were seeded into 96-well flat bottom tissue culture plates at 5,000 cells/well (10,000 cells/well for […]). The cells were allowed to attach overnight. The growth medium was removed the following day and cells were washed twice with unsupplemented (basal) medium to remove traces of serum and growth factors. Basal medium (200 μl) was added to each well and the cells incubated in medium lacking growth factors and serum to starve and synchronize them in the G0 state. After starvation (48 hours for […] and 39 hours for […]) in medium lacking serum and growth factors, the cells were replenished with 200 μl supplemented medium in the absence or presence of drugs at the desired concentrations. […] After a 72-hour incubation period, 25 μl (1 μCi/well) of ^3H-thymidine (Amersham Biosciences) were added to each well. The cells were incubated at 37° C. for 16-18 hours to allow incorporation of ^3H-thymidine into newly synthesized DNA and the cells harvested onto 96-well plates containing bonded glass fiber filters using a cell harvester (Harvester 9600, TOMTEC). […] Controls included medium only, starved cells and cells in complete medium. Drug activity was established by determining the inhibition of ^3H-thymidine incorporation into newly synthesized DNA relative to cells grown in complete medium. […] The final IC50s are means of the 3-4 experiments. In these experiments, the x-axis represents the concentration of the drug being varied. For most of these curves that is zotarolimus alone and in combination with a fixed concentration of dexamethasone. Each graph contains a dexamethasone alone curve and a zotarolimus alone curve. The set of curves in each graph is generated by adding dexamethasone at a fixed concentration (1, 5, 10 or 25 nM) to various concentrations of zotarolimus (0, 0.04, 0.08, 0.8, 4, 8, 40 nM). Each curve represents the dose-response of zotarolimus (whose concentration is given on the x-axis) in the presence of the fixed concentration of dexamethasone given in the legend). […] The concentration eliciting a specific antiproliferative effect was determined using a 4-parameter equation (Equation 1). […]
smiles,measurement,value
CO[C@H]1C[C@@H]2CC[C@@H](C)[C@@](O)(O2)C(=O)C(=O)N2CCCC[C@H]2C(=O)O[C@H]([C@H](C)C[C@@H]2CC[C@H](n3cnnn3)[C@H](OC)C2)CC(=O)[C@H](C)/C=C(\C)[C@@H](O)[C@@H](OC)C(=O)[C@H](C)C[C@H](C)/C=C/C=C/C=C/1C [zotarolimus],IC50,6.2 ± 1.2 nM
